According to the supplement of paper PMC6045584:
± gives the standard deviation of the averaged measurements.

Key:
PACLITAXEL = compound: CC(=O)O[C@H]1C(=O)[C@@]2(C)[C@H]([C@H](OC(=O)c3ccccc3)[C@]3(O)C[C@H](OC(=O)[C@H](O)[C@@H](NC(=O)c4ccccc4)c4ccccc4)C(C)=C1C3(C)C)[C@]1(OC(C)=O)CO[C@@H]1C[C@@H]2O [PACLITAXEL]; experiment: surviving fraction relative to DMSO-only wells; higher = less growth inhibition; settings: exposure time: 5 days
Method in brief: (§1)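 Each tumour cell line was screened three times, and only lines with replicate Pearson r >0.7 and median Z' >0.3 were kept. Cells in log phase were seeded at 250–500 per well in 384-well plates, left 24 hours, then exposed continuously for five days to inhibitors at 0.5, 1, 5, 10, 50, 100, 500 and 1000 nM. Viability was read as CellTiter-Glo luminescence, with surviving fraction normalised to the median of DMSO-only wells.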

CELECOXIB = compound: Cc1ccc(-c2cc(C(F)(F)F)nn2-c2ccc(S(N)(=O)=O)cc2)cc1 [CELECOXIB]; experiment: as above; settings: exposure time: 5 days
Method in brief: as §1

Test System: COLO320DM LARGE INTESTINE
- surviving fraction (PACLITAXEL; 0.5 nM): 1.12 ± 0.1
- surviving fraction (PACLITAXEL; 1 nM): 1.1 ± 0.091
- surviving fraction (PACLITAXEL; 5 nM): 1.1 ± 0.018
- surviving fraction (PACLITAXEL; 10 nM): 1.03 ± 0.18
- surviving fraction (PACLITAXEL; 50 nM): 0.525 ± 0.033
- surviving fraction (PACLITAXEL; 100 nM): 0.292 ± 0.014
- surviving fraction (PACLITAXEL; 500 nM): 0.161 ± 0.015
- surviving fraction (PACLITAXEL; 1000 nM): 0.116 ± 0.0099
- surviving fraction (CELECOXIB; 0.5 nM): 1.12 ± 0.18
- surviving fraction (CELECOXIB; 1 nM): 1.12 ± 0.17
- surviving fraction (CELECOXIB; 5 nM): 1.15 ± 0.075
- surviving fraction (CELECOXIB; 10 nM): 1.12 ± 0.15
- surviving fraction (CELECOXIB; 50 nM): 1.14 ± 0.043
- surviving fraction (CELECOXIB; 100 nM): 1.15 ± 0.025
- surviving fraction (CELECOXIB; 500 nM): 1.15 ± 0.074
- surviving fraction (CELECOXIB; 1000 nM): 1.13 ± 0.031

Test System: SG43 HEADNECK
- surviving fraction (PACLITAXEL; 0.5 nM): 0.793 ± 0.2
- surviving fraction (PACLITAXEL; 1 nM): 0.849 ± 0.078
- surviving fraction (PACLITAXEL; 5 nM): 0.588 ± 0.022
- surviving fraction (PACLITAXEL; 10 nM): 0.619 ± 0.067
- surviving fraction (PACLITAXEL; 50 nM): 0.471 ± 0.0079
- surviving fraction (PACLITAXEL; 100 nM): 0.467 ± 0.091
- surviving fraction (PACLITAXEL; 500 nM): 0.477 ± 0.07
- surviving fraction (PACLITAXEL; 1000 nM): 0.433 ± 0.038
- surviving fraction (CELECOXIB; 0.5 nM): 0.96 ± 0.3
- surviving fraction (CELECOXIB; 1 nM): 1.22 ± 0.49
- surviving fraction (CELECOXIB; 5 nM): 0.942 ± 0.31
- surviving fraction (CELECOXIB; 10 nM): 0.929 ± 0.28
- surviving fraction (CELECOXIB; 50 nM): 0.938 ± 0.21
- surviving fraction (CELECOXIB; 100 nM): 1.14 ± 0.051
- surviving fraction (CELECOXIB; 500 nM): 1.04 ± 0.035
- surviving fraction (CELECOXIB; 1000 nM): 1.08 ± 0.08

Test System: H23 LUNG
- surviving fraction (PACLITAXEL; 0.5 nM): 0.951 ± 0.03
- surviving fraction (PACLITAXEL; 1 nM): 0.866 ± 0.022
- surviving fraction (PACLITAXEL; 5 nM): 0.18 ± 0.0027
- surviving fraction (PACLITAXEL; 10 nM): 0.14 ± 0.0095
- surviving fraction (PACLITAXEL; 50 nM): 0.113 ± 0.0091
- surviving fraction (PACLITAXEL; 100 nM): 0.108 ± 0.0042
- surviving fraction (PACLITAXEL; 500 nM): 0.0867 ± 0.0067
- surviving fraction (PACLITAXEL; 1000 nM): 0.089 ± 0.003
- surviving fraction (CELECOXIB; 0.5 nM): 1.01 ± 0.018
- surviving fraction (CELECOXIB; 1 nM): 1.04 ± 0.062
- surviving fraction (CELECOXIB; 5 nM): 1.04 ± 0.021
- surviving fraction (CELECOXIB; 10 nM): 1.03 ± 0.05
- surviving fraction (CELECOXIB; 50 nM): 1.07 ± 0.05
- surviving fraction (CELECOXIB; 100 nM): 1.18 ± 0.067
- surviving fraction (CELECOXIB; 500 nM): 1.18 ± 0.015
- surviving fraction (CELECOXIB; 1000 nM): 1.16 ± 0.074

Test System: A549 LUNG
- surviving fraction (PACLITAXEL; 0.5 nM): 0.982 ± 0.013
- surviving fraction (PACLITAXEL; 1 nM): 1.04 ± 0.031
- surviving fraction (PACLITAXEL; 5 nM): 0.369 ± 0.011
- surviving fraction (PACLITAXEL; 10 nM): 0.234 ± 0.0055
- surviving fraction (PACLITAXEL; 50 nM): 0.182 ± 0.011
- surviving fraction (PACLITAXEL; 100 nM): 0.186 ± 0.01
- surviving fraction (PACLITAXEL; 500 nM): 0.172 ± 0.0087
- surviving fraction (PACLITAXEL; 1000 nM): 0.179 ± 0.0038
- surviving fraction (CELECOXIB; 0.5 nM): 1.04 ± 0.039
- surviving fraction (CELECOXIB; 1 nM): 1.05 ± 0.025
- surviving fraction (CELECOXIB; 5 nM): 1.05 ± 0.045
- surviving fraction (CELECOXIB; 10 nM): 1.05 ± 0.029
- surviving fraction (CELECOXIB; 50 nM): 1.08 ± 0.044
- surviving fraction (CELECOXIB; 100 nM): 1.08 ± 0.045
- surviving fraction (CELECOXIB; 500 nM): 1.11 ± 0.057
- surviving fraction (CELECOXIB; 1000 nM): 1.05 ± 0.044

Test System: JIMT1 BREAST
- surviving fraction (PACLITAXEL; 0.5 nM): 0.618 ± 0.028
- surviving fraction (PACLITAXEL; 1 nM): 0.293 ± 0.024
- surviving fraction (PACLITAXEL; 5 nM): 0.16 ± 0.0026
- surviving fraction (PACLITAXEL; 10 nM): 0.119 ± 0.011
- surviving fraction (PACLITAXEL; 50 nM): 0.0905 ± 0.0083
- surviving fraction (PACLITAXEL; 100 nM): 0.0907 ± 0.0037
- surviving fraction (PACLITAXEL; 500 nM): 0.0727 ± 0.008
- surviving fraction (PACLITAXEL; 1000 nM): 0.0808 ± 0.0025
- surviving fraction (CELECOXIB; 0.5 nM): 1.04 ± 0.039
- surviving fraction (CELECOXIB; 1 nM): 1.04 ± 0.023
- surviving fraction (CELECOXIB; 5 nM): 1.06 ± 0.039
- surviving fraction (CELECOXIB; 10 nM): 1.08 ± 0.051
- surviving fraction (CELECOXIB; 50 nM): 1.04 ± 0.021
- surviving fraction (CELECOXIB; 100 nM): 1.08 ± 0.015
- surviving fraction (CELECOXIB; 500 nM): 1.08 ± 0.062
- surviving fraction (CELECOXIB; 1000 nM): 1.07 ± 0.024

Test System: RDES SOFT TISSUE
- surviving fraction (PACLITAXEL; 0.5 nM): 1.099 ± 0.0061
- surviving fraction (PACLITAXEL; 1 nM): 1.22 ± 0.22
- surviving fraction (PACLITAXEL; 5 nM): 0.189 ± 0.067
- surviving fraction (PACLITAXEL; 10 nM): 0.129 ± 0.014
- surviving fraction (PACLITAXEL; 50 nM): 0.0673 ± 0.009
- surviving fraction (PACLITAXEL; 100 nM): 0.0537 ± 0.0058
- surviving fraction (PACLITAXEL; 500 nM): 0.056 ± 0.011
- surviving fraction (PACLITAXEL; 1000 nM): 0.0623 ± 0.004
- surviving fraction (CELECOXIB; 0.5 nM): 1.11 ± 0.11
- surviving fraction (CELECOXIB; 1 nM): 1.16 ± 0.14
- surviving fraction (CELECOXIB; 5 nM): 1.19 ± 0.069
- surviving fraction (CELECOXIB; 10 nM): 1.11 ± 0.077
- surviving fraction (CELECOXIB; 50 nM): 1.16 ± 0.25
- surviving fraction (CELECOXIB; 100 nM): 1.27 ± 0.11
- surviving fraction (CELECOXIB; 500 nM): 1.17 ± 0.14
- surviving fraction (CELECOXIB; 1000 nM): 1.15 ± 0.045

Test System: SCC90 HEADNECK
- surviving fraction (PACLITAXEL; 0.5 nM): 0.919 ± 0.038
- surviving fraction (PACLITAXEL; 1 nM): 0.95 ± 0.12
- surviving fraction (PACLITAXEL; 5 nM): 0.429 ± 0.057
- surviving fraction (PACLITAXEL; 10 nM): 0.294 ± 0.063
- surviving fraction (PACLITAXEL; 50 nM): 0.119 ± 0.024
- surviving fraction (PACLITAXEL; 100 nM): 0.0713 ± 0.011
- surviving fraction (PACLITAXEL; 500 nM): 0.07 ± 0.012
- surviving fraction (PACLITAXEL; 1000 nM): 0.0663 ± 0.01
- surviving fraction (CELECOXIB; 0.5 nM): 0.978 ± 0.063
- surviving fraction (CELECOXIB; 1 nM): 1.09 ± 0.13
- surviving fraction (CELECOXIB; 5 nM): 1.09 ± 0.11
- surviving fraction (CELECOXIB; 10 nM): 1.01 ± 0.077
- surviving fraction (CELECOXIB; 50 nM): 1.13 ± 0.11
- surviving fraction (CELECOXIB; 100 nM): 1.01 ± 0.077
- surviving fraction (CELECOXIB; 500 nM): 0.93 ± 0.048
- surviving fraction (CELECOXIB; 1000 nM): 1.01 ± 0.15

Test System: ASKA SYNOVIAL
- surviving fraction (PACLITAXEL; 0.5 nM): 0.851 ± 0.028
- surviving fraction (PACLITAXEL; 1 nM): 0.629 ± 0.052
- surviving fraction (PACLITAXEL; 5 nM): 0.203 ± 0.011
- surviving fraction (PACLITAXEL; 10 nM): 0.194 ± 0.0031
- surviving fraction (PACLITAXEL; 50 nM): 0.262 ± 0.0055
- surviving fraction (PACLITAXEL; 100 nM): 0.23 ± 0.011
- surviving fraction (PACLITAXEL; 500 nM): 0.199 ± 0.016
- surviving fraction (PACLITAXEL; 1000 nM): 0.229 ± 0.01
- surviving fraction (CELECOXIB; 0.5 nM): 1.16 ± 0.098
- surviving fraction (CELECOXIB; 1 nM): 1.15 ± 0.074
- surviving fraction (CELECOXIB; 5 nM): 1.2 ± 0.05
- surviving fraction (CELECOXIB; 10 nM): 1.19 ± 0.048
- surviving fraction (CELECOXIB; 50 nM): 1.19 ± 0.12
- surviving fraction (CELECOXIB; 100 nM): 1.21 ± 0.064
- surviving fraction (CELECOXIB; 500 nM): 1.15 ± 0.073
- surviving fraction (CELECOXIB; 1000 nM): 1.12 ± 0.039

Test System: C33A CERVIX
- surviving fraction (PACLITAXEL; 0.5 nM): 0.855 ± 0.042
- surviving fraction (PACLITAXEL; 1 nM): 0.842 ± 0.054
- surviving fraction (PACLITAXEL; 5 nM): 0.328 ± 0.015
- surviving fraction (PACLITAXEL; 10 nM): 0.179 ± 0.031
- surviving fraction (PACLITAXEL; 50 nM): 0.11 ± 0.0091
- surviving fraction (PACLITAXEL; 100 nM): 0.173 ± 0.047
- surviving fraction (PACLITAXEL; 500 nM): 0.089 ± 0.021
- surviving fraction (PACLITAXEL; 1000 nM): 0.0977 ± 0.025
- surviving fraction (CELECOXIB; 0.5 nM): 0.897 ± 0.037
- surviving fraction (CELECOXIB; 1 nM): 0.951 ± 0.11
- surviving fraction (CELECOXIB; 5 nM): 1.01 ± 0.083
- surviving fraction (CELECOXIB; 10 nM): 0.954 ± 0.037
- surviving fraction (CELECOXIB; 50 nM): 0.932 ± 0.11
- surviving fraction (CELECOXIB; 100 nM): 1.04 ± 0.088
- surviving fraction (CELECOXIB; 500 nM): 0.981 ± 0.13
- surviving fraction (CELECOXIB; 1000 nM): 1.11 ± 0.035

Test System: CASKI CERVIX
- surviving fraction (PACLITAXEL; 0.5 nM): 0.857 ± 0.054
- surviving fraction (PACLITAXEL; 1 nM): 0.619 ± 0.029
- surviving fraction (PACLITAXEL; 5 nM): 0.0537 ± 0.011
- surviving fraction (PACLITAXEL; 10 nM): 0.0343 ± 0.00058
- surviving fraction (PACLITAXEL; 50 nM): 0.037 ± 0.005
- surviving fraction (PACLITAXEL; 100 nM): 0.0387 ± 0.0067
- surviving fraction (PACLITAXEL; 500 nM): 0.0313 ± 0.005
- surviving fraction (PACLITAXEL; 1000 nM): 0.0303 ± 0.0045
- surviving fraction (CELECOXIB; 0.5 nM): 0.944 ± 0.024
- surviving fraction (CELECOXIB; 1 nM): 0.881 ± 0.056
- surviving fraction (CELECOXIB; 5 nM): 0.952 ± 0.029
- surviving fraction (CELECOXIB; 10 nM): 0.93 ± 0.055
- surviving fraction (CELECOXIB; 50 nM): 1.01 ± 0.027
- surviving fraction (CELECOXIB; 100 nM): 1 ± 0.051
- surviving fraction (CELECOXIB; 500 nM): 0.933 ± 0.034
- surviving fraction (CELECOXIB; 1000 nM): 0.972 ± 0.11
